# Results taken from ChEMBL document CHEMBL1143261, “Enantioselective actions of 4-amino-3-hydroxybutanoic acid and (3-amino-2-hydroxypropyl)methylphosphinic acid at recombinant GABA(C) receptors” (Bioorg Med Chem Lett, 2008).
# Biological target: T1, Gamma-aminobutyric acid receptor subunit rho-1 (Homo sapiens, UniProt P24046)
# Test: Agonist activity at human recombinant GABAc rho1 receptor expressed in Xenopus laevis oocytes at -60mV by two-electrode voltage clamp method
# Format: functional, cell-based, Oocyte
# T1 sequence (P24046 whole entry): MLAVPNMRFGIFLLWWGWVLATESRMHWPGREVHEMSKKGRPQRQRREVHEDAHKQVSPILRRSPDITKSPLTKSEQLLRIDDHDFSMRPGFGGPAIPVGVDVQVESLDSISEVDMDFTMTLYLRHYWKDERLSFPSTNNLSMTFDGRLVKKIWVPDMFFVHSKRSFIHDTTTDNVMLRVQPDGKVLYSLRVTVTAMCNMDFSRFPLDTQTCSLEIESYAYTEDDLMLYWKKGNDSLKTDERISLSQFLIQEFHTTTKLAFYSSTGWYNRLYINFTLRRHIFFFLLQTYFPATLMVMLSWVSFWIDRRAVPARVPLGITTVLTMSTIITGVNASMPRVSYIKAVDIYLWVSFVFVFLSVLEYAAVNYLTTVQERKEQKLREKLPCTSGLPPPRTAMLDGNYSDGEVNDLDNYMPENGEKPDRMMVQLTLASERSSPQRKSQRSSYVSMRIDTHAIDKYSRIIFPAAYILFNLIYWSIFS
row,Structure (SMILES),EC50
1,C[C@@H](CCN)C(=O)O,65 µM
2,NC[C@H](O)CC(=O)O,19.1 µM
3,NC[C@@H](O)CC(=O)O,44.8 µM

# Biological target: T1, Gamma-aminobutyric acid receptor subunit rho-1
# Test: Antagonist activity at human recombinant GABAc rho1 receptor expressed in Xenopus laevis oocytes at -60mV by two-electrode voltage clamp method
# Format: functional, cell-based, Oocyte
row,Structure (SMILES),IC50
1,CP(=O)(O)C[C@@H](O)CN,17.1 µM
2,CP(=O)(O)C[C@H](O)CN,5.4 µM
3,C[C@H](CCN)C(=O)O,16 µM
